{"source": "patent US20110200662A1", "about": "“Method For The Treatment Of Proliferative Disorders Of The Eye” (priority 2008, published 2011)", "molecules": {"B1": {"name": "ranibizumab (antibody, chains of the INN, looked up, V domains shown)", "VH": "EVQLVESGGGLVQPGGSLRLSCAASGYDFTHYGMNWVRQAPGKGLEWVGWINTYTGEPTYAADFKRRFTFSLDTSKSTAYLQMNSLRAEDTAVYYCAKYPYYYGTSHWYFDVWGQGTLVTVSS", "VL": "DIQLTQSPSSLSASVGDRVTITCSASQDISNYLNWYQQKPGKAPKVLIYFTSSLHSGVPSRFSGSGSGTDFTLTISSLQPEDFATYYCQQYSTVPWTFGQGTKVEIK"}}, "key": {"cell proliferation": {"tested_on": "cell proliferation", "settings": "cited from earlier work"}, "[1]": {"tested_on": "DNA repair response (RPA, γ-H2AX)", "settings": "non-proliferating cells; cited from earlier work"}, "[2]": {"tested_on": "approximately 60 different human cancer cell lines", "test": "NCI DTP Human Tumor Cell Line Screen (colorimetric assay, 48 hours)", "type": "cell-based", "settings": "average value across the cell lines, 48 hours incubation", "method": "FIG. 1 summarizes the screening results obtained with forty different anticancer agents in the National Cancer Institute (NCI) DTP Human Tumor Cell Line Screen in which approximately 60 different human cancer cell lines were incubated for 48 hours with the anticancer drugs. […] For details on the assay, find on the wide world web at dtp.nci.nih.gov/branches/btb/ivclsp. FIG. 1 presents for each drug the average value across the cell lines of the TGI, the LC50, and the ratio of LC50 to TGI.\nIn a preferred embodiment the drug is bizelesin. Bizelesin has a number of unexpected properties that make it highly suited for treating proliferative disorders of the eye. The drug is an ultra-potent irreversible inhibitor of cell proliferation. As few as 1 to approximately 10 bizelesin-DNA crosslinks can inhibit cell proliferation. The small number of drug molecules per cell needed to inhibit clonogenic potential limits collateral damage to cellular processes in nonproliferating cells. […] There is a large difference between the bizelesin concentration that inhibits cell proliferation and the concentration that kills cells. This unexpected property is in sharp contrast to typical anticancer drugs as evidence by the data shown in FIG. 1, which summarizes screening results obtained with forty different anticancer agents in the National Cancer Institute (NCI) DTP Human Tumor Cell Line Screen. […]"}, "[3]": {"settings": "unless given intravascularly; cited from earlier work"}, "[4]": {"tested_on": "choroidal neovascularization", "test": "Laser induced mouse model of choroidal neovascularization, intravitreal injection", "settings": "for inhibition of neovascularization in the area of the laser burn: single intravitreal dose of 0.6 ng, day 14", "excerpt": "Details of the model are provided in Xie, B. et al., “Blockade of Sphingosine-1-phosphate Reduces Macrophage Influx and Retinal and Choroidal Neovascularization,” J Cell Physiol, 218(1): 192-8 (January 2009 Bizelesin was formulated in PBS as described in Example 1. In brief, 5-6 week old C57BL/6 mice on day 0 were anesthetized and choroidal neovascularization was induced by laser photocoagulation-induced rupture of Bruch's membrane. The mice were then given an intravitreal injection of 1 microliter of control diluent in one eye and in the contralateral fellow eye 1 microliter of solution containing 6 ng to 0.006 ng of Bizelesin. Ten mice were employed per dose level. On day 14 the mice were perfused with fluorescein-labeled dextran, the retinas were isolated, flat mounts prepared, and the area of neovascularization was determined with fluorescent microscopy and computerized image analysis."}, "[5]": {"tested_on": "HCT116 colon cancer cells", "settings": "250 times the GC50 concentration for 4 days; cited from earlier work"}, "[6]": {"tested_on": "approximately 60 different human cancer cell lines", "settings": "average value across the cell lines, 48 hours incubation; cited from earlier work"}, "[7]": {"tested_on": "retinal neovascularization", "test": "Mouse model of ischemic proliferative retinopathy, intravitreal injection", "description": "Intravitreal bizelesin was evaluated in the mouse model of ischemic proliferative retinopathy.\nBizelesin was dissolved in DMSO PharmaSolvent (Gaylord Chemical, Inc.) at 20 microgram/ml and filtered sterilized with a 0.2 micron Milliex-LG Millipore filter. […] The bizelesin solution was stored at −65 C or below. Immediately prior to administration the drug solution was thawed and diluted with sterile phosphate buffered saline (PBS).\nIn brief, for the ischemic proliferative retinopathy model, liters of C57BL/6 mice were exposed to 75% oxygen from P7 to P12 (P=age in days) and then returned to room air. On P12 the mice were anesthetized and given an intravitreal injection of 1 microliter of bizelesin solution or 1 microliter of control diluent. The dose of bizelesin ranged from 0.6 picogram to 0.6 nanograms. On the evening of P16 the mice were given an intravitreal injection of anti-mouse platelet endothelial cell adhesion molecule-1 (PECAM-1) antibody, which stain new blood vessels. On P17, the retinas were isolated, flat mounts prepared, and the area of neovascularization was determined with fluorescent microscopy and computerized image analysis."}, "cellular DNA": {"tested_on": "cellular DNA", "settings": "cited from earlier work"}, "retinal fibrosis": {"tested_on": "retinal fibrosis", "settings": "long-term follow-up; cited from earlier work"}}}
{"molecule": "Cc1c[nH]c2c1[C@@]13C[C@@H]1CN(C(=O)c1cc4cc(NC(=O)c5cc6ccccc6o5)ccc4[nH]1)C3=CC2=O", "note": "[adozelesin]", "values": [{"measurement": "GI50 (inhibition of cell proliferation)", "setting": "cell proliferation", "value": "picomolar to sub-picomolar range"}, {"measurement": "DNA repair response", "setting": "[1]", "value": "does not trigger A DNA repair response"}]}
{"molecule": "Cc1c[nH]c2c(O)cc3c(c12)[C@H](CCl)CN3C(=O)c1cc2cc(NC(=O)Nc3ccc4[nH]c(C(=O)N5C[C@@H](CCl)c6c5cc(O)c5[nH]cc(C)c65)cc4c3)ccc2[nH]1", "note": "[bizelesin]", "values": [{"measurement": "ratio of LC50 to TGI", "setting": "[2]", "value": 480}, {"measurement": "systemic bioavailability", "setting": "[3]", "value": "poor systemic bioavailability"}, {"measurement": "clinical evidence of ocular toxicity", "setting": "[4]; intravitreal 6 ng to 0.006 ng", "value": "no clinical evidence of ocular toxicity"}, {"measurement": "inhibition of neovascularization in the area of the laser burn", "setting": "[4]", "value": "nearly complete inhibition"}, {"measurement": "inhibition of neovascularization in the area of the laser burn", "setting": "[4]; listed as Bizelesin", "value": "dramatic inhibition"}, {"measurement": "GI50 (inhibition of cell proliferation)", "setting": "cell proliferation", "value": "picomolar to sub-picomolar range"}, {"measurement": "apoptosis", "setting": "[5]", "value": "did not cause apoptosis"}, {"measurement": "TGI (drug concentration that completely inhibited cell growth)", "setting": "[6]", "value": "picomolar range"}, {"measurement": "clinical evidence of ocular toxicity", "setting": "[7]; intravitreal 0.6 nanogram", "value": "without any clinical evidence of ocular toxicity"}, {"measurement": "average area of neovascularization compared to diluent (p value)", "setting": "[7]; single dose of 0.06 ng", "value": "highly statistically significant"}, {"measurement": "average area of neovascularization compared to diluent (p value)", "setting": "[7]; single dose of 0.6 ng", "value": "highly statistically significant"}, {"measurement": "inhibition of proliferative retinopathy and neovascularization", "setting": "[7]; single intravitreal injection of 0.6 nanogram on P12, read on P17", "value": "nearly complete inhibition"}]}
{"molecule": "N.N.[Cl][Pt][Cl]", "note": "[cisplatin]", "values": [{"measurement": "DNA adducts formed at concentrations that inhibit cell growth by 50%", "setting": "cellular DNA", "value": "approximately 14,000"}]}
{"molecule": "B1", "values": [{"measurement": "patients who developed retinal fibrosis", "setting": "retinal fibrosis", "value": 50, "unit": "%"}]}
